Assay results published in ChEMBL document CHEMBL5465560, “Selectivity Literature for EUbOPEN Chemogenomic Library” (2024).

Tests used:
[1] = target: Phosphatidylinositol 4-kinase beta (Homo sapiens, UniProt Q9UBF8); experiment: Selectivity interaction (KinomeScan (DiscoverX)) EUB0001049a PI4KB; details: at 1 µM
[2] = target: Protein kinase C alpha type (Homo sapiens, UniProt P17252); experiment: Selectivity interaction (Millipore kinase profiler) EUB0000124b PRKCA; details: at 10 µM
[3] = target: Serine/threonine-protein kinase 33 (Homo sapiens) (UniProt Q9BYT3); experiment: Selectivity interaction (KinomeScan (DiscoverX)) EUB0001079a STK33; details: at 1 µM
Sequence of Serine/threonine-protein kinase 33 (Homo sapiens) (Q9BYT3 whole entry, looked up): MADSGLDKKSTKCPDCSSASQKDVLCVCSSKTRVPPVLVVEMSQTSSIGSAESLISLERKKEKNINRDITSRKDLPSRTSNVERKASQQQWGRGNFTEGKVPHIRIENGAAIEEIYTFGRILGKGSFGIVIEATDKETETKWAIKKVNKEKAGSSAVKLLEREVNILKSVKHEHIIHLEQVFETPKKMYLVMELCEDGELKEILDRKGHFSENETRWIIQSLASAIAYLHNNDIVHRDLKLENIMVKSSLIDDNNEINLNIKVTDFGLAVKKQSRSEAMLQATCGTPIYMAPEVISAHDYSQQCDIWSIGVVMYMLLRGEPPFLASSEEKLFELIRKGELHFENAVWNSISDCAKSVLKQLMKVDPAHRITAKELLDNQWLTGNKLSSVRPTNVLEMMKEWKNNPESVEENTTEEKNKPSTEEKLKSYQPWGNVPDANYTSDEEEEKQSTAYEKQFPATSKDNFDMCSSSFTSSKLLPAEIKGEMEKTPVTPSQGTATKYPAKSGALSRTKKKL

[4] = target: Mitogen-activated protein kinase kinase kinase 9 (Homo sapiens) (UniProt P80192); experiment: Selectivity interaction (KinomeScan (DiscoverX)) EUB0001079a MAP3K9; details: at 1 µM
[5] = target: Ribosomal protein S6 kinase alpha-4 (Homo sapiens) (UniProt O75676); details: at 10 µM
[6] = target: Serine/threonine-protein kinase WNK2 (Homo sapiens) (UniProt Q9Y3S1); experiment: Selectivity interaction (ActivX KiNativ screen (kinase selectivity in THP-1 cell lysates)) EUB0000639a WNK2; assay type: subcellular; details: lysate
Sequence of Serine/threonine-protein kinase WNK2 (Homo sapiens) (Q9Y3S1 whole entry): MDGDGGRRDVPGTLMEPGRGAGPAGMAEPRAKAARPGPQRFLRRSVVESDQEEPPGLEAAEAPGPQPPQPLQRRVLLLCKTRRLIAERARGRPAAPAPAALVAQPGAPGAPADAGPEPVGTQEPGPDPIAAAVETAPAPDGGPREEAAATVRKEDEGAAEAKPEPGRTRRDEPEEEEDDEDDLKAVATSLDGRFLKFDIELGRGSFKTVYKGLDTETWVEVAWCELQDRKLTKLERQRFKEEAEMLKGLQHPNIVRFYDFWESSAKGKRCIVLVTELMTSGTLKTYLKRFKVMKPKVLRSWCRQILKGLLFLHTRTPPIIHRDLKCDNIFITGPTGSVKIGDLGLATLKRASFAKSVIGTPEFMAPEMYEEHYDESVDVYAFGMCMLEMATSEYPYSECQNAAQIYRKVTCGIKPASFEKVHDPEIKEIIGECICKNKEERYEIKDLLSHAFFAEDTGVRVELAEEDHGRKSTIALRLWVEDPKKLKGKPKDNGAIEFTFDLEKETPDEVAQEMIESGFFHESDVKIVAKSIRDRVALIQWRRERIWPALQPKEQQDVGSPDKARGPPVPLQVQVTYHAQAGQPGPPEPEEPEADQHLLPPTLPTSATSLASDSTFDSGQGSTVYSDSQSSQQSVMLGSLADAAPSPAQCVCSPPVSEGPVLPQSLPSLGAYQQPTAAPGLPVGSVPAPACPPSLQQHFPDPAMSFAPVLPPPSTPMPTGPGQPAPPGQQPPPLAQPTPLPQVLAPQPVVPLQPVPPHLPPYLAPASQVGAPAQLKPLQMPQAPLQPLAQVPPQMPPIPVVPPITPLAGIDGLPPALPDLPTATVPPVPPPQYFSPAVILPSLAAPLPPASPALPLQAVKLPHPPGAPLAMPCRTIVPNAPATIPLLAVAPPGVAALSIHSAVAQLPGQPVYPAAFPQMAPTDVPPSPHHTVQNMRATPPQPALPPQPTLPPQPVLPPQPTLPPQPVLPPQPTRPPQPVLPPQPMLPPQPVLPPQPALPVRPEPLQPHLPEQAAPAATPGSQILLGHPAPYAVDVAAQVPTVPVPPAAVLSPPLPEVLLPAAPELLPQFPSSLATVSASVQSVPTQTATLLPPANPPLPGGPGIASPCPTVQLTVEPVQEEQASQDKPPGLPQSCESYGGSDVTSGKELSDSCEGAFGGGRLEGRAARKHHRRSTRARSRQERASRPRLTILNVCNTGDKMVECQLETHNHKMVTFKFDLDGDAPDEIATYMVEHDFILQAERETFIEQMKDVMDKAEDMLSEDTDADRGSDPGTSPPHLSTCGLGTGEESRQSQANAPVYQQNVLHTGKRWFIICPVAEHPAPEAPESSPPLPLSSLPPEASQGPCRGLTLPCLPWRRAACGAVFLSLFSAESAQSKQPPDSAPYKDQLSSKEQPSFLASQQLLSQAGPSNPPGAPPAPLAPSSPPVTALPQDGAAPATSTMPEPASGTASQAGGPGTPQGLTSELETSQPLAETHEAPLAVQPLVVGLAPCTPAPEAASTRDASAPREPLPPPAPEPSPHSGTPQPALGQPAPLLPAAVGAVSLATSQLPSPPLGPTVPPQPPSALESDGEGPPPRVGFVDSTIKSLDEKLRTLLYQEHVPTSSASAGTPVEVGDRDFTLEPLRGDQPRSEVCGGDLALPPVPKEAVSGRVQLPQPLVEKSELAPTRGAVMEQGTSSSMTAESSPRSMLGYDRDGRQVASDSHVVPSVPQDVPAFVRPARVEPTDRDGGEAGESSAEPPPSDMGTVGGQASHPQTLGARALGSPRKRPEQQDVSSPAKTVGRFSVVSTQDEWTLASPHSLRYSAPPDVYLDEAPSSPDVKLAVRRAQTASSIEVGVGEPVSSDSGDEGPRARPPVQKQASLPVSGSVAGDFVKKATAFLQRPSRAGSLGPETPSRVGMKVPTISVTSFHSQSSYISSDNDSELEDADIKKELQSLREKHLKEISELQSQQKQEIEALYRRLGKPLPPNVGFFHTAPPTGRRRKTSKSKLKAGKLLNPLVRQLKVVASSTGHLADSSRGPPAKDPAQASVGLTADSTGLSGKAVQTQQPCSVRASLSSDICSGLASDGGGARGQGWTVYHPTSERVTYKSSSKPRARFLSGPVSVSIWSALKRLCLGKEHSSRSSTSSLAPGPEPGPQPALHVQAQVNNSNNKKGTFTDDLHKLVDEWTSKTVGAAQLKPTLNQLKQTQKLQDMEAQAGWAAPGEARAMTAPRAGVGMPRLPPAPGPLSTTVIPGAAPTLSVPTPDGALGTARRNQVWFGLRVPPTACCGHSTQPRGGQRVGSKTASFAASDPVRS

[7] = target: T1, Ephrin type-A receptor 1 (Homo sapiens) (UniProt P21709); experiment: Selectivity interaction (KinomeScan (DiscoverX)) EUB0000595a EPHA1; details: at 10 µM
T1 sequence (whole entry): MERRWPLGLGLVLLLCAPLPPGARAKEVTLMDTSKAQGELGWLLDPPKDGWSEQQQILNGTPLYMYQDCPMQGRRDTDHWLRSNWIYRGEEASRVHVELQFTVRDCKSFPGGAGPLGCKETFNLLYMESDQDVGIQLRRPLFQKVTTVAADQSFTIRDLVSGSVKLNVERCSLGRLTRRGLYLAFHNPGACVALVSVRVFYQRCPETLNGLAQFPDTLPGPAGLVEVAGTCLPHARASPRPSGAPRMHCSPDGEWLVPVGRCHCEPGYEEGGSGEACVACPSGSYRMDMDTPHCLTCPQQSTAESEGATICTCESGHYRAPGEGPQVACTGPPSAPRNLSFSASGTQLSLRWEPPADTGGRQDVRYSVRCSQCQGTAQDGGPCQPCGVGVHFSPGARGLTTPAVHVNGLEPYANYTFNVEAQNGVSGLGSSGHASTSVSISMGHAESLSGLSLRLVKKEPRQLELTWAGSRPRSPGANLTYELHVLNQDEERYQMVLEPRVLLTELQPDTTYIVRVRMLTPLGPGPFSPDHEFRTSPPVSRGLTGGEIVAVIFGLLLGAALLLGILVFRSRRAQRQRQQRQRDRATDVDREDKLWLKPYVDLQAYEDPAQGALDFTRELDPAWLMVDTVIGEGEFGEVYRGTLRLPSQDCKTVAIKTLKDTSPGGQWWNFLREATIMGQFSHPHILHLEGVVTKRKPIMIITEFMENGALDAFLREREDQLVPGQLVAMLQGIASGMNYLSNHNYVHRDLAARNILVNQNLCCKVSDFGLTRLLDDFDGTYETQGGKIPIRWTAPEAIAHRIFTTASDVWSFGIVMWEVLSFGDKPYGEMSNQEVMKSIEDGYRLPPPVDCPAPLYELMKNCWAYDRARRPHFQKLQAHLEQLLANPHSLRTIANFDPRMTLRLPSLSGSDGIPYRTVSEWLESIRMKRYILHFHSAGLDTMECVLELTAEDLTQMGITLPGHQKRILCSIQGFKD

[8] = target: T2, Activin receptor type-1B (Homo sapiens) (UniProt P36896); experiment: Selectivity interaction (Ambit KINOMEscan and KiNATiv profiling in Jurkat cells) EUB0000090b ACVR1B; assay type: cell-based; details: at 1 µM
T2 sequence (whole entry): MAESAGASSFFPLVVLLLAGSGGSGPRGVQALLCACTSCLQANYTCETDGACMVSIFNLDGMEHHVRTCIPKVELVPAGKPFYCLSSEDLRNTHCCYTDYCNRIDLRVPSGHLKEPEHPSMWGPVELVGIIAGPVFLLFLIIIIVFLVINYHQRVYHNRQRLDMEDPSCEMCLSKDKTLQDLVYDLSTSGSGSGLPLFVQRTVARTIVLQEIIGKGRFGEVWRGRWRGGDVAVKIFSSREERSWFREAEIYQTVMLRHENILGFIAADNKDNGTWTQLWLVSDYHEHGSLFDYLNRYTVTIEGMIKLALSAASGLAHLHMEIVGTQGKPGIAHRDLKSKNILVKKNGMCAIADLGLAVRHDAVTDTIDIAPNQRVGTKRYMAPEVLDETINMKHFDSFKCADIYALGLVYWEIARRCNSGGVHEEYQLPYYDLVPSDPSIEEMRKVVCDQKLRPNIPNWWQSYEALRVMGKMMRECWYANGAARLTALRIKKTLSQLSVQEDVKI

[9] = target: High affinity nerve growth factor receptor (Homo sapiens, UniProt P04629); experiment: Selectivity interaction (KinomeScan (DiscoverX)) EUB0000695a NTRK1; details: at 100 nM
[10] = target: Proto-oncogene tyrosine-protein kinase ROS (Homo sapiens) (UniProt P08922); experiment: Selectivity interaction (KinomeScan (DiscoverX)) EUB0000607a ROS1; details: at 10 µM
[11] = target: Serine/threonine-protein kinase PAK 6 (Homo sapiens) (UniProt Q9NQU5); experiment: Selectivity interaction (Kinase panel (Z-LYTE Assay)) EUB0001632a PAK6; details: at 10 µM
[12] = target: T3, Serine/threonine-protein kinase 3 (Homo sapiens) (UniProt Q13188); experiment: Selectivity interaction (Kinase panel (Z-LYTE Assay)) EUB0001632a STK3; details: at 10 µM
T3 sequence (whole entry): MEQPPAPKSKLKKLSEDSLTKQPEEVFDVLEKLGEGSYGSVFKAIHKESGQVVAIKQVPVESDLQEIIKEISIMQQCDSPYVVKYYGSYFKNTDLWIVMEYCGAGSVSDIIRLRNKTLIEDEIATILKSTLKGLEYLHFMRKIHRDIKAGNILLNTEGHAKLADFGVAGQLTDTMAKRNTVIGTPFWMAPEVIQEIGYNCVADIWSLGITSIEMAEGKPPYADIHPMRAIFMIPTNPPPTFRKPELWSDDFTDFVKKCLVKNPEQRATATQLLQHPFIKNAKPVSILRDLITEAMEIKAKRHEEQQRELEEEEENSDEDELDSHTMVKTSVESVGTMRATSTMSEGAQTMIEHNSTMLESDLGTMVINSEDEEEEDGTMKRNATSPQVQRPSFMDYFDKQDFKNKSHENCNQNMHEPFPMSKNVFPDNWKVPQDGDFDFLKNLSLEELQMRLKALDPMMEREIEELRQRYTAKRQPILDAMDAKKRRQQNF

[13] = target: RAC-gamma serine/threonine-protein kinase (Homo sapiens, UniProt Q9Y243); experiment: Selectivity interaction (Rxn Biology Kinase assay) EUB0001632a AKT3; details: at 10 µM
Sequence of RAC-gamma serine/threonine-protein kinase (Q9Y243 whole entry): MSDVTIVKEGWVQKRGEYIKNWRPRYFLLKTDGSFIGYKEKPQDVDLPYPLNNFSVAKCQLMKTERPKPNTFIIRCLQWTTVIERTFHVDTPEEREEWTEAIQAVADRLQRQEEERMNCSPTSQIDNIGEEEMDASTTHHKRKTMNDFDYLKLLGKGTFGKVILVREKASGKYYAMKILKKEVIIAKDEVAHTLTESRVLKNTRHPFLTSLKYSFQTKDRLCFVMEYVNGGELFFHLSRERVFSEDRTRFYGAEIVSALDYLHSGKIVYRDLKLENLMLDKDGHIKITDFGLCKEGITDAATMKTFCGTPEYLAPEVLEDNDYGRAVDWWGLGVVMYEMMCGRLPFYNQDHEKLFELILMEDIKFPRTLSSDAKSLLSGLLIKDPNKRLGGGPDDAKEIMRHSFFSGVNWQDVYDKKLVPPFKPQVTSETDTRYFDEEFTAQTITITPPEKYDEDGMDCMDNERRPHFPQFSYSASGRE

[14] = target: Serine/threonine-protein kinase tousled-like 2 (Homo sapiens) (UniProt Q86UE8); experiment: Selectivity interaction (ProQinase) EUB0000171b TLK2
Sequence of Serine/threonine-protein kinase tousled-like 2 (Homo sapiens) (Q86UE8 whole entry, looked up): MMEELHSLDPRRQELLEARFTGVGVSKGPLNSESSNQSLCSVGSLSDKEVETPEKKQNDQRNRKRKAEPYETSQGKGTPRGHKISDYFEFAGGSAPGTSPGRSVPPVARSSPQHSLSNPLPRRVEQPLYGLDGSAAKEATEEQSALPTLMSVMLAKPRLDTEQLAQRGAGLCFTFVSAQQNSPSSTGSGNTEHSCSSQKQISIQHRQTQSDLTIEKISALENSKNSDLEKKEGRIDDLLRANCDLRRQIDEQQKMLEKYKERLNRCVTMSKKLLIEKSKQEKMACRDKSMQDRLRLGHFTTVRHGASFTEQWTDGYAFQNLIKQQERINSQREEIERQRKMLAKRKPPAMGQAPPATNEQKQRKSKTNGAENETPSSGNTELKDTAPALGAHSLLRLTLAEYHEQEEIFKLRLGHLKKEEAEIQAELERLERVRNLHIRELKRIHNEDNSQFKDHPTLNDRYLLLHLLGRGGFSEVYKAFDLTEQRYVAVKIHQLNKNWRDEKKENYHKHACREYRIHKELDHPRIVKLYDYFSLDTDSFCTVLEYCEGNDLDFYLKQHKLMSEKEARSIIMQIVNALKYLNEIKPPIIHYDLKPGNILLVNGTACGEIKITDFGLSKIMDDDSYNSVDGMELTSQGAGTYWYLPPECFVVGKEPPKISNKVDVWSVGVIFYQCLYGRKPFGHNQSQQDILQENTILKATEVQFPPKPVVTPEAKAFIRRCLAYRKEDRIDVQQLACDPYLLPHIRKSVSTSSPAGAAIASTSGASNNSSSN

Sequence of Phosphatidylinositol 4-kinase beta (Q9UBF8 2-816 limits assumed): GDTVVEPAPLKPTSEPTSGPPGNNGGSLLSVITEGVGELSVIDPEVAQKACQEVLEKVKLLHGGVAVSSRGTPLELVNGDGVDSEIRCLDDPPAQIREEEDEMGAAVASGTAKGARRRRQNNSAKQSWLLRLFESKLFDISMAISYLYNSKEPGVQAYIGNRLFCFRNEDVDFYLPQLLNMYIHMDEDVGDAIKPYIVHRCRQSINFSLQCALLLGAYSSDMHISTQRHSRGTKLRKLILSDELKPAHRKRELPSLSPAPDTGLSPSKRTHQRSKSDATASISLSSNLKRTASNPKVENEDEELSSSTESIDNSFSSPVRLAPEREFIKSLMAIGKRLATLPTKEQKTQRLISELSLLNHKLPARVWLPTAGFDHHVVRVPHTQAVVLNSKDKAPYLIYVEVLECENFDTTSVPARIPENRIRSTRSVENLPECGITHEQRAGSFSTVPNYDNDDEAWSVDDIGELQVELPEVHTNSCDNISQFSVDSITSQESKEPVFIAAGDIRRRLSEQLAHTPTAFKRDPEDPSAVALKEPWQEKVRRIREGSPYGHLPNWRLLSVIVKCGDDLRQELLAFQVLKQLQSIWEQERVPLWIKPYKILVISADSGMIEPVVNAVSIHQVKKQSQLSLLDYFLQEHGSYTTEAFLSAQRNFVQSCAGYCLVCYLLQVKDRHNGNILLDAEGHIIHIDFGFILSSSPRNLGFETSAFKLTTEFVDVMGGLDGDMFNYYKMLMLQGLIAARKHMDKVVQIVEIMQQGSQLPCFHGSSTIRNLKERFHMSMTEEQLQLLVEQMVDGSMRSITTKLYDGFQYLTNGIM

## COc1cc(Nc2nc(C)cc(-c3cnn4nc(OC)ccc34)n2)cc(C(F)(F)F)c1
[1]
  % of control: 85%

## CC(=O)Nc1cccc(-n2c(=O)n(C3CC3)c(=O)c3c(Nc4ccc(I)cc4F)n(C)c(=O)c(C)c32)c1
[2]
  % of control: 101%

## Nc1cnc(N2CCc3cc(S(=O)(=O)Nc4c(F)cc(Cl)cc4F)cc(N4CCCC4=O)c32)nc1 [TP-020n]
[3]
  % of control: 80%
[4]
  % of control: 100%

## CCN(CC)CCCCNc1ncc2cc(-c3cc(OC)cc(OC)c3)c(NC(=O)NC(C)(C)C)nc2n1
[5]
  % of control: 100%

## CC[C@@H]1[C@H](F)C(=O)N[C@@H]1COc1nccc2cc(C(N)=O)c(OC)cc12 [ZIMLOVISERTIB]
[6]; at 0.01 µM
  % of inhibition: 10.1%
[6]; at 0.04 µM
  % of inhibition: 23.3%
[6]; at 0.2 µM
  % of inhibition: 9.7%
[6]; at 1 µM
  % of inhibition: 3.1%
[6]; at 5 µM
  % of inhibition: 3%

## COCC(=O)NC/C=C/c1ccc2ncnc(Nc3ccc(Oc4ccc(C)nc4)c(C)c3)c2c1 [CP-724714]
[7]
  % of control: 88%

## CN(C)C/C=C/C(=O)Nc1ccc(C(=O)N2CCCC(Nc3ncc(Cl)c(-c4c[nH]c5ccccc45)n3)C2)cc1 (centres undefined)
[8]
  % of control: 96%

## Cc1cc(F)c(C(=O)Nc2cccc(-c3nncn3C(C)C)n2)cc1-n1cnc(C2CC2)c1
[9]
  % of control: 79%

## CNC(=O)Nc1ccc(-c2nc(N3CC4CCC(C3)O4)c3cnn(C4CCC5(CC4)OCCO5)c3n2)cc1
[10]
  % of control: 81%

## Cn1cc(-n2cnc3c(NCc4nc5cc(Cl)c(Cl)cc5[nH]4)nc(N4CCOCC4)nc32)cn1
[11]
  % of control: -4.06%
[12]
  % of control: 0.418%
[13]
  % of inhibition: 6.75%

## C=CC(=O)Nc1cccc(C(=O)Nc2ccc(Nc3cc(-c4[nH]c(SC)nc4C)ccn3)cc2)c1
[14]; at 1 µM
  % of control: 92%
[14]; at 5 µM
  % of control: 83%
